Patent publication US8741944B2, “Anti-infective agents against intracellular pathogens” (priority 2007, dated 2014)
Like-named read-outs stand apart in the source and are kept apart here.

Columns and labels:
[1] = test system: SR (Leukemia); experiment: NCI DTP tumor cell line screen (SRB), SR
Method: (§1) For a typical screening experiment, cells are inoculated into 96 well microtiter plates in 100 μL at plating densities ranging from 5,000 to 40,000 cells/well depending on the doubling time of individual cell lines. After cell inoculation, the microtiter plates are incubated at 37° C., 5% CO2, 95% air and 100% relative humidity for 24 h prior to addition of experimental drugs.
(§2) After 24 h, two plates of each cell line are fixed in situ with TCA, to represent a measurement of the cell population for each cell line at the time of drug addition (Tz). Experimental drugs are solubilized in dimethyl sulfoxide at 400-fold the desired final maximum test concentration and stored frozen prior to use. At the time of drug addition, an aliquot of frozen concentrate is thawed and diluted to twice the desired final maximum test concentration with complete medium containing 50 μg/ml gentamicin. Additional four, 10-fold or ½ log serial dilutions are made to provide a total of five drug concentrations plus control. Aliquots of 100 μl of these different drug dilutions are added to the appropriate microtiter wells already containing 100 μl of medium, resulting in the required final drug concentrations.
(§3) Following drug addition, the plates are incubated for an additional 48 h at 37° C., 5% CO2, 95% air, and 100% relative humidity. For adherent cells, the assay is terminated by the addition of cold TCA. Cells are fixed in situ by the gentle addition of 50 μl of cold 50% (w/v) TCA (final concentration, 10% TCA) and incubated for 60 minutes at 4° C. The supernatant is discarded, and the plates are washed five times with tap water and air dried. Sulforhodamine B (SRB) solution (1001) at 0.4% (w/v) in 1% acetic acid is added to each well, and plates are incubated for 10 minutes at room temperature. After staining, unbound dye is removed by washing five times with 1% acetic acid and the plates are air dried. Bound stain is subsequently solubilized with 10 mM trizma base, and the absorbance is read on an automated plate reader at a wavelength of 515 nm. For suspension cells, the methodology is the same except that the assay is terminated by fixing settled cells at the bottom of the wells by gently adding 50 μl of 80% TCA (final concentration, 16% TCA). Using the seven absorbance measurements [time zero, (Tz), control growth, (C), and test growth in the presence of drug at the five concentration levels (Ti)], the percentage growth is calculated at each of the drug concentrations levels. Percentage growth inhibition is calculated as: [(Ti−Tz)/(C−Tz)]×100 for concentrations for which Ti>/=Tz [(Ti−Tz)/Tz]×100 for concentrations for which Ti<Tz
(§4) Three dose response parameters are calculated for each experimental agent. […] The drug concentration resulting in total growth inhibition (TGI) is calculated from Ti=Tz. […] Values are calculated for each of these three parameters if the level of activity is reached; however, if the effect is not reached or is exceeded, the value for that parameter is expressed as greater or less than the maximum or minimum concentration tested.

[2] = test system: EKVX (Non-Small Cell Lung Cancer); experiment: NCI DTP tumor cell line screen (SRB), EKVX
Method: as §1, §2, §3, §4

[3] = test system: A498 (Renal Cancer); experiment: NCI DTP tumor cell line screen (SRB), A498
Method: as §1, §2, §3, §4

[4] = test system: TK-10 (Renal Cancer); experiment: NCI DTP tumor cell line screen (SRB), TK-10
Method: as §1, §2, §3, §4

[5] = test system: MOLT-4 (Leukemia); experiment: NCI DTP tumor cell line screen (SRB), MOLT-4
Method: as §1, §2, §3, §4

[6] = test system: SW-620 (Colon Cancer); experiment: NCI DTP tumor cell line screen (SRB), SW-620
Method: as §1, §2, §3, §4

[7] = test system: CAKI-1 (Renal Cancer); experiment: NCI DTP tumor cell line screen (SRB), CAKI-1
Method: as §1, §2, §3, §4

[8] = test system: DU-145 (Prostate Cancer); experiment: NCI DTP tumor cell line screen (SRB), DU-145
Method: as §1, §2, §3, §4

[9] = test system: NCI-H23 (Non-Small Cell Lung Cancer)
Method: as §1, §2, §3, §4

[10] = test system: OVCAR-3 (Ovarian Cancer); experiment: NCI DTP tumor cell line screen (SRB), OVCAR-3
Method: as §1, §2, §3, §4

[11] = test system: OVCAR-4 (Ovarian Cancer); experiment: NCI DTP tumor cell line screen (SRB), OVCAR-4
Method: as §1, §2, §3, §4

[12] = test system: OVCAR-5 (Ovarian Cancer); experiment: NCI DTP tumor cell line screen (SRB), OVCAR-5
Method: as §1, §2, §3, §4

[13] = test system: NCI-H522 (Non-Small Cell Lung Cancer)
Method: as §1, §2, §3, §4

[14] = test system: A549/ATCC (Non-Small Cell Lung Cancer); experiment: NCI DTP tumor cell line screen (SRB), A549/ATCC
Method: as §1, §2, §3, §4

[15] = test system: MDA-MB-231/ATCC (Breast Cancer); experiment: NCI DTP tumor cell line screen (SRB), MDA-MB-231/ATCC
Method: as §1, §2, §3, §4

## 4-[5-(2-Phenanthrenyl)-3-(trifluoromethyl)-1H-pyrazol-1-yl]-phenyl -guanidine [Compound 71]
[1]
  GI50: 38.6 nM
  TGI: 3.79E−07
[1]; Log10 Concentration −4.0
  Percent Growth: −21%
[1]; Log10 Concentration −5.0
  Percent Growth: −36%
[1]; Log10 Concentration −6.0
  Percent Growth: −30%
[1]; Log10 Concentration −7.0
  Percent Growth: 42%
[1]; Log10 Concentration −8.0
  Percent Growth: 62%
[2]
  GI50: 1060 nM
  TGI: 2.24E−06
[2]; Log10 Concentration −5.0
  Percent Growth: −100%
[2]; Log10 Concentration −7.0
  Percent Growth: 63%
[2]; Log10 Concentration −8.0
  Percent Growth: 55%
[3]
  GI50: 16500 nM
  TGI: 4.35E−05
[3]; Log10 Concentration −4.0
  Percent Growth: −43%
[3]; Log10 Concentration −5.0
  Percent Growth: 76%
[3]; Log10 Concentration −6.0
  Percent Growth: 73%
[3]; Log10 Concentration −7.0
  Percent Growth: 91%
[3]; Log10 Concentration −8.0
  Percent Growth: 116%
[4]
  GI50: 1320 nM
  TGI: 2.59E−06
[4]; Log10 Concentration −4.0
  Percent Growth: −64%
[4]; Log10 Concentration −5.0
  Percent Growth: −100%
[4]; Log10 Concentration −6.0
  Percent Growth: 71%
[4]; Log10 Concentration −7.0
  Percent Growth: 90%
[4]; Log10 Concentration −8.0
  Percent Growth: 78%
[5]
  GI50: 233 nM
  TGI: 1.98E−06
[5]; Log10 Concentration −6.0
  Percent Growth: 23%
[5]; Log10 Concentration −7.0
  Percent Growth: 66%
[6]
  GI50: 1750 nM
  TGI: 3.13E−06
[6]; Log10 Concentration −4.0
  Percent Growth: −92%
[6]; Log10 Concentration −5.0
  Percent Growth: −100%
[6]; Log10 Concentration −6.0
  Percent Growth: 98%
[6]; Log10 Concentration −7.0
  Percent Growth: 91%
[6]; Log10 Concentration −8.0
  Percent Growth: 83%
[7]
  GI50: 1830 nM
  TGI: 3.22E−06
[7]; Log10 Concentration −4.0
  Percent Growth: −47%
[7]; Log10 Concentration −5.0
  Percent Growth: −100%
[7]; Log10 Concentration −6.0
  Percent Growth: 103%
[7]; Log10 Concentration −8.0
  Percent Growth: 97%
[8]
  GI50: 1550 nM
  TGI: 2.89E−06
[8]; Log10 Concentration −4.0
  Percent Growth: −100%
[8]; Log10 Concentration −5.0
  Percent Growth: −100%
[8]; Log10 Concentration −6.0
  Percent Growth: 85%
[8]; Log10 Concentration −8.0
  Percent Growth: 72%
[9]
  GI50: 1790 nM
  TGI: 3.18E−06
[9]; Log10 Concentration −4.0
  Percent Growth: −67%
[9]; Log10 Concentration −5.0
  Percent Growth: −100%
[9]; Log10 Concentration −6.0
  Percent Growth: 101%
[10]
  GI50: 1400 nM
  TGI: 2.70E−06
[10]; Log10 Concentration −4.0
  Percent Growth: −72%
[10]; Log10 Concentration −5.0
  Percent Growth: −100%
[10]; Log10 Concentration −6.0
  Percent Growth: 76%
[10]; Log10 Concentration −8.0
  Percent Growth: 91%
[11]
  GI50: 1310 nM
  TGI: 2.58E−06
[11]; Log10 Concentration −4.0
  Percent Growth: −66%
[11]; Log10 Concentration −5.0
  Percent Growth: −100%
[11]; Log10 Concentration −6.0
  Percent Growth: 70%
[11]; Log10 Concentration −7.0
  Percent Growth: 79%
[12]
  GI50: 1730 nM
  TGI: 3.11E−06
[12]; Log10 Concentration −4.0
  Percent Growth: −8%
[12]; Log10 Concentration −5.0
  Percent Growth: −100%
[12]; Log10 Concentration −6.0
  Percent Growth: 97%
[12]; Log10 Concentration −8.0
  Percent Growth: 95%
[13]
  GI50: 1450 nM
  TGI: 2.82E−06
[13]; Log10 Concentration −4.0
  Percent Growth: −43%
[13]; Log10 Concentration −5.0
  Percent Growth: −95%
[13]; Log10 Concentration −6.0
  Percent Growth: 78%
[13]; Log10 Concentration −8.0
  Percent Growth: 82%
[14]
  GI50: 1680 nM
  TGI: 3.04E−06
[14]; Log10 Concentration −4.0
  Percent Growth: −63%
[14]; Log10 Concentration −5.0
  Percent Growth: −100%
[15]
  TGI: 1.66E−06
[15]; Log10 Concentration −4.0
  Percent Growth: −39%
[15]; Log10 Concentration −5.0
  Percent Growth: −98%
[15]; Log10 Concentration −6.0
  Percent Growth: 27%
[15]; Log10 Concentration −7.0
  Percent Growth: 78%
[15]; Log10 Concentration −8.0
  Percent Growth: 47%
